From US20040033524A1, “Beta-adrenoceptor genetic polymorphisms and obesity” (priority 2001, published 2004)

Test system: individuals with hypertension
Assay: Blood pressure and heart rate response to metoprolol by β1AR codon 389 / codon 49 genotype
Assay type: in vivo, human
Conditions: for 24 hr SBP response (% change) / 24 hr DBP response (% change) / Daytime DBP response (% change) / Daytime SBP response (% change) / Nighttime DBP response (% change) / Nighttime SBP response (% change): at least 4 weeks
Protocol: Genetic variation (polymorphisms) in the gene encoding the beta 1-adrenergic receptor (β1AR) contribute to the variability in response to beta-blockers. There are two common, non-synonymous polymorphisms of the P AR gene and they result in either a serine (Ser) or glycine (Gly) at codon 49, and arginine (Arg) or glycine (Gly) at codon 389. The relationship between these polymorphisms and heart rate and blood pressure response to the beta-blocker metoprolol was tested in 28 individuals with hypertension.
Patients were washed out from all their antihypertensive medications for at least 2 weeks. They then underwent baseline testing which included recording of 24-hour ambulatory blood pressure data and treadmill exercise heart rate responses at 10 AM and 2 PM. Patients were started on metoprolol and titrated to a dose that produced a diastolic blood pressure DBP<90 mm Hg, or until they reached the maximum dose (200 mg twice daily). Patients were maintained on this target dose for at least 4 weeks and then underwent repeat studies, as at baseline.
Patients were also divided as responders or non-responders, with non-responders defined as those with a <10% decline in DBP, and compared allele frequencies in these groups.

[1] = Arg389Arg genotype, metoprolol titrated
[2] = Ser49Ser genotype, metoprolol titrated
[3] = codon 49 Gly carriers, metoprolol titrated
[4] = codon 389 Gly carriers, metoprolol titrated

COCCc1ccc(OCC(O)CNC(C)C)cc1 (stereo not drawn) [metoprolol]
24 hr SBP response (% change) (Arg389Arg genotype, metoprolol titrated to DBP<90 mm Hg or max 200 mg twice daily, 24-hour ambulatory BP vs baseline): −10.5 ± 7.9 % change | 24 hr DBP response (% change) [1]: −12.6 ± 7.4 % change | Daytime DBP response (% change) [1]: −13.6 ± 7.2 % change | Daytime SBP response (% change) [1]: −11.6 ± 8.0 % change | Nighttime DBP response (% change) [1]: −10.6 ± 11.6 % change | Nighttime SBP response (% change) [1]: −7.5 ± 9.5 % change | Daytime blood pressure response (Arg389 homozygotes compared to carriers of Gly389, not nighttime): significantly greater | 24 hr DBP response (% change) [2]: −10.7 ± 7.8 % change | 24 hr SBP response (% change) [2]: −10.1 ± 9.1 % change | Daytime DBP response (% change) [2]: −10.3 ± 8.2 % change | Daytime SBP response (% change) [2]: −10.2 ± 9.3 % change | Nighttime DBP response (% change) [2]: −12.4 ± 9.4 % change | Nighttime SBP response (% change) [2]: −9.3 ± 10.9 % change | change in nighttime blood pressure (Ser49 homozygotes compared to carriers of the Gly49 allele): significantly greater | 24 hr DBP response (% change) [3]: −3.9 ± 8.9 % change | 24 hr SBP response (% change) [3]: −0.6 ± 12.2 % change | Daytime DBP response (% change) [3]: −4.0 ± 10.4 % change | Daytime SBP response (% change) [3]: −1.0 ± 12.8 % change | Nighttime DBP response (% change) [3]: −3.1 ± 9.0 % change | Nighttime SBP response (% change) [3]: +0.6 ± 11.8 % change | 24 hr DBP response (% change) [4]: −4.6 ± 8.3 % change | Daytime DBP response (% change) [4]: −3.5 ± 8.7 % change | Daytime SBP response (% change) [4]: −2.8 ± 12.5 % change | Nighttime DBP response (% change) [4]: −7.3 ± 9.1 % change | Nighttime SBP response (% change) [4]: −3.9 ± 13.9 % change | 24 hr SBP response (% change) (codon 389 Gly carriers, metoprolol titrated, ambulatory BP vs baseline): −3.3 ± 12.6 % change | heart rate response to beta-blockade (treadmill exercise heart rate, relation to β1AR genotype): not associated with genotype
